Entries after “also recorded” stand apart in the source; their conditions may differ.
Legend:
[1] = tested on: allergic sheep challenged with Ascaris suum antigen; assay: Post-antigen airway hyperresponsiveness (AHR), PD400 of inhaled carbachol, in allergic sheep; type: in vivo
Protocol: (§1) Pulmonary airflow resistance was measured by taking allergic sheep previously verified as dual bronchoconstrictor responders to Ascaris suum antigen. The sheep were intubated with a cuffed nasotracheal tube and pulmonary airflow resistance (RL) was measured by the esophageal balloon catheter technique. Airway responsiveness was determined by first securing cumulative dose response curves to inhaled carbachol (a constrictor agonist) by measuring RL before and after inhalation of buffered saline and after each administration of 10 breaths of increasing concentrations of carbachol (0.25, 0.5, 1.0, 2.0 and 4.0% wt/vol solution). Airway responsiveness was measured by determining the cumulative provocation dose (PD400) of carbachol (in breath units) that increased RL to 400% above baseline. One breath unit was defined as one breath of 1% carbachol solution.
To assess airway responsiveness, cumulative dose response curves to inhaled carbachol were performed by measuring RL before and after inhalation of buffered saline and after each administration of 10 breaths of increasing concentrations of carbachol (0.25, 0.5, 1.0, 2.0, and 4.0% wt/vol solution). Airway responsiveness was measured by determining the cumulative provocation dose (PD400) of carbachol (in breath units) that increased RL to 400% above baseline. One breath unit was defined as one breath of 1% carbachol solution.
(§2) For airway studies, each animal's baseline airway responsiveness (PD400) was determined and then, on different experimental days, the test sheep underwent airway challenge with Ascaris suum antigen. RL was measured to establish baseline, then measured again immediately after antigen challenge and hourly for an eight hour period and then a post challenge PD400 was measured 24 hours after antigen challenge. In each of the Figures presented herein, FIGS. 1A, 2A, 3A etc. present day two data measured on an hourly basis for the eight hour period and contain control data (closed circles) and drug treatment data (open circles or triangles (closed or open)). The drug treatment experiments were conducted on the same animals used in the control studies but after a period of several weeks following the day 3 PD400 measurements. FIGS. 1B, 2B, 3B etc. contain the day one baseline PD400 data and day three PD400 data following antigen challenge in control or drug treated animals.
(§3) Data were expressed or may be expressed as (a) mean+/−SE % change of RL and (b) PD400 in breath units. Data were also expressed as (c) % protection of Early Airway Response (EAR, for 0-4 hours) and Late Airway Response (LAR, for 4-8 hours), as estimated by area under the curve for EAR and LAR respectively. And (d) AHR %
Thus, the numbers in the Figures as presented were obtained by the formula: Baseline PD400-drugantigenPD400 was x-y;Baseline PD400-ControlantigenPD400 was x-z. x-y/x-z×100=n. 100−n=X % protection in AHR.

[2] = tested on: allergic sheep challenged with Ascaris suum antigen; assay: Antigen-induced early and late airway responses (EAR, LAR), pulmonary airflow resistance RL, in allergic sheep; type: in vivo
Protocol: as §1
To illustrate the effectiveness of the formulations according to the invention to treat and alleviate allergen related diseases and conditions, including but not limited to the specific diseases and conditions recited herein, sheep were assessed in multiple experiments which compared various formulations containing no active ingredient to animals which were provided formulations comprising a compound of formula I (SSS-02). To measure pulmonary airflow resistance, the sheep were intubated with a cuffed nasotracheal tube and pulmonary airflow resistance (RL) was measured by the esophageal balloon catheter technique. These methods are accepted and well known methods found in the literature.
as §2, §3

[3] = 0.5 mg/kg QD x 4 days oral versus i.v., sheep, listed as 2,5-anhydro-3-O-(α-L-idopyranosyl)-D-mannitol hepta-O-sulfate sodium salt
[4] = inhaled multiple dose 10 mg x 3, n=6
[5] = inhaled single dose 10 mg, 30 min before antigen, n=5
[6] = single oral dose 0.5 mg/kg, 90 min before antigen, n=5
[7] = single oral dose 1 mg/kg, 90 min before antigen, n=5
[8] = i.v. 0.5 mg/kg QD for 4 days, last dose 90 min before antigen, n=5
[9] = inhaled multiple dose 10 mg x 3, n=6, sodium salt
[10] = oral 0.5 mg/kg BID x 7 doses, last dose 90 min before antigen, n=5
[11] = oral 0.5 mg/kg x 3 doses, one every 12 h, antigen 90 min after last dose, n=8
[12] = oral 1 mg/kg x 3 doses, one every 12 h, antigen 90 min after last dose, n=8
[13] = oral liquid 0.5 mg/kg QD for 4 days, last dose 90 min before antigen, n=5

## O=S(=O)([O-])OC[C@@H]1O[C@@H](O[C@H]2[C@H](OS(=O)(=O)[O-])[C@@H](COS(=O)(=O)[O-])O[C@@H]2COS(=O)(=O)[O-])[C@H](OS(=O)(=O)[O-])[C@@H](OS(=O)(=O)[O-])[C@@H]1OS(=O)(=O)[O-].[Na+].[Na+].[Na+].[Na+].[Na+].[Na+].[Na+] [SSS-056-01, 2,5-anhydro-3-O-(α-L-idopyranose)-D-mannitol-hepta-O-sulfate-hepta sodium salt]
[1]; i.v. 0.5 mg/kg QD for 4 days, PD400 24 h post-antigen, n=5
  inhibition of AHR: 100%
[1]; [4]
  inhibition of AHR: 100%
[1]; [5]
  inhibition of AHR: 100%
[1]; oral 0.5 mg/kg BID x 7 doses, n=5
  inhibition of AHR: 100%
[1]; oral 0.5 mg/kg x 3 doses, one every 12 h, n=8
  inhibition of AHR: 100%
[1]; oral 1 mg/kg x 3 doses, one every 12 h, n=8
  inhibition of AHR: 100%
[1]; oral liquid 0.5 mg/kg QD for 4 days, PD400 24 h post-antigen, n=5
  inhibition of AHR: 100%
[1]; [6]
  inhibition of AHR: 100%
[1]; [7]
  inhibition of AHR: 100%
[2]; [8]
  inhibition of EAR: 77%
  inhibition of LAR: 92%
[2]; [4]
  inhibition of LAR: 75%
[2]; [9]
  effect on EAR: without an effect; also recorded: no significant cumulative effect
  effect on LAR (in words): did have an effect on LAR; also recorded: did inhibit LAR
[2]; inhaled single dose 5 mg, 30 min before antigen, n=5
  effect on EAR, LAR and AHR: ineffective
[2]; [5]
  effect on EAR: without an effect
  inhibition of LAR: 75%
[2]; oral 0.25 mg/kg x 3 doses, one every 12 h, antigen 90 min after last dose, n=8
  effect on EAR, LAR and AHR: ineffective
[2]; [10]
  inhibition of EAR: 76%
  inhibition of LAR: 96%
[2]; [11]
  inhibition of EAR: 30%
  inhibition of LAR: 85%
[2]; [12]
  inhibition of EAR: 54%
  inhibition of LAR: 87%
[2]; [13]
  inhibition of EAR: 77%
  inhibition of LAR: 95%
[2]; single oral dose 0.25 mg/kg, 90 min before antigen, n=5
  effect on EAR, LAR and AHR: ineffective
[2]; [6]
  effect on EAR: without an effect
  inhibition of LAR: 71%
[2]; [7]
  effect on EAR: without an effect
  inhibition of LAR: 77%
[3]
  bioavailability of oral dose versus intravenous dose: comparable bioavailability
